According to paper PMC4718634, “Murine GPRC6A Mediates Cellular Responses to L-Amino Acids, but Not Osteocalcin Variants” (PLoS ONE, 2016):
“Also recorded” adds a separate entry of the source.

Columns and labels:
[1] = target: T1, mGPRC6A (mouse GPRC6A) (Mus musculus, UniProt Q8K4Z6); test: Ca^2+i mobilisation, FlpIn-TREx-HEK293-mGPRC6A cells; format: cell-based
T1 sequence (Q8K4Z6 21-928): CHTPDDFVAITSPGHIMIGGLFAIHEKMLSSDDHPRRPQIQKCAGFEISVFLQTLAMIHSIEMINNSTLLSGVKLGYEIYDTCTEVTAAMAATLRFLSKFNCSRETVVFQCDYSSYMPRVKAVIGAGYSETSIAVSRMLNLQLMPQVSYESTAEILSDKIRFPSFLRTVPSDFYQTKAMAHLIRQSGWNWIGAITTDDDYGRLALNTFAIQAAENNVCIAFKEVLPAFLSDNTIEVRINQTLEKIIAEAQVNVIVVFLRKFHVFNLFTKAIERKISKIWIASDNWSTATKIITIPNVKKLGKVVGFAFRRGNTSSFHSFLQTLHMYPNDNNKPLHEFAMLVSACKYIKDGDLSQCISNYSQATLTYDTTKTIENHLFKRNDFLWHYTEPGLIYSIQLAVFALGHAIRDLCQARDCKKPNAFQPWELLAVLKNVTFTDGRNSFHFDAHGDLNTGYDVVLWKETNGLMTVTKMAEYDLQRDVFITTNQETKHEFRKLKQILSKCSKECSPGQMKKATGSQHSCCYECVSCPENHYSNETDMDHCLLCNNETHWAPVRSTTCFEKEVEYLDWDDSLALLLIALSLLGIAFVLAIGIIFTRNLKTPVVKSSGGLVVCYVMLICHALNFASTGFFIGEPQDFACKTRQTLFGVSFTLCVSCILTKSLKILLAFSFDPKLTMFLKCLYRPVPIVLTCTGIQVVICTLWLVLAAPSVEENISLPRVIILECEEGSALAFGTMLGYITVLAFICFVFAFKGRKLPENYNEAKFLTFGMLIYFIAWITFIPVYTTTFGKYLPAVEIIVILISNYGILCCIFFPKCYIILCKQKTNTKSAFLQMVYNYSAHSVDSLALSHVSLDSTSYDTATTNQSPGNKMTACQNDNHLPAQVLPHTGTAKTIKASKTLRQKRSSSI
In short: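 Tetracycline-induced FlpIn-TREx-HEK293 cells expressing mouse GPRC6A, transiently transfected with Gαq or GαqG66D and serum-starved overnight, were loaded with 1 μM Fluo-4-AM 1 h at 37 °C in pH 7.4 buffer with probenecid.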

[2] = target: T1, mGPRC6A (mouse GPRC6A); test: Cyclic AMP accumulation, HEK293-pIRES-puro6-mGPRC6A cells; format: cell-based; conditions: pIRES-puro6 higher-expressing line, S2 Fig
Protocol: pcDNA 5/FRT/TO constructs were isogenically integrated into a FlpIn-TREx-HEK293 cell line (Life Technologies). FlpIn-TREx-HEK293-mGPRC6A and FlpIn-TREx-HEK293-hGPRC6A cells were then selected using 600 μg/ml hygromycin and 5 μg/ml blasticidin and grown in culture medium consisting of Dulbecco’s Modified Eagle Medium (DMEM), supplemented with 10% (v/v) foetal bovine serum (FBS) at 37°C in 5% CO2 and were sub-cultured in a 1:3 ratio every 3–4 days. Cells were cultured overnight in the presence of 1 μg/ml tetracycline to induce GPRC6A expression. […] 48 h after transfection, cells were selected using 3 μg/ml puromycin and grown as above.
HEK293-mGPRC6A cells were seeded at a density of 10^5 cells per well into PDL-coated 96-well plates and incubated overnight in DMEM, supplemented with 10% FBS (v/v) at 37°C in 5% CO2. Cells were then incubated in 90 μl of stimulation buffer (HBSS containing 5 mM HEPES, 0.1% BSA (w/v), 0.5 mM IBMX; pH 7.4) for 30 min at 37°C. Test compounds (10 μl at 10 x final) were added and cells were incubated for an additional 30 min at 37°C. The medium was removed and cells were incubated in 50 μl of ice-cold 100% ethanol. […] Samples were analysed using the Alphascreen® cAMP assay kit (Perkin Elmer) following manufacturer instructions. […] After overnight (16 h) incubation at RT, plates were read using the Envision plate reader.

[3] = system: mouse GPRC6A; conditions: ref [13]; cited from earlier work
Description: Additional interest in GPRC6A has emerged due to several studies reporting that it mediates the metabolic and endocrine effects of the de-carboxylated form of the osteoblast-derived peptide, osteocalcin (OCN). […] Given these discrepancies, we sought to evaluate the pharmacology of human and mouse GPRC6A in a range of cell signalling assays ...

Molecule | potency at murine GPRC6A (calcium and inositol phosphate, words) ([1]; calcium mobilisation and inositol phosphate accumulation, Discussion) | rank order of potency, Ca^2+ mobilisation ([1]; co-expressing GαqG66D, Fig 1D) | EC50 ([1]; co-expressing GαqG66D, Fluo-4, normalised to 100 μM ATP, pEC50 ± SEM, printed in picture Fig 1D, read-out: pEC50, Ca^2+ mobilisation (converted)) [µM] | inhibition of forskolin-stimulated cAMP ([2]; forskolin 3 μM) | stimulation of cAMP accumulation [2] | agonist activity of OCN at mouse GPRC6A [3]
NCCC[C@H](N)C(=O)O [L-ornithine] | most potent agonists | L-ornithine > L-arginine = L-lysine | 3.16 | none of the ligands inhibit | Neither L-ornithine nor OCN variants stimulate cAMP accumulation | –
OCN: osteoblast-derived peptide, osteocalcin; variant not specified at the place (YLYQWLGAPVPYPDPLEPRREVCELNPDCDELADHIGFQEAYRRFYGPV; UniProt P02818 52-100, looked up) | – | – | – | – | – | no agonist effect of OCN was evident in any of the assays profiled; also recorded: failed to replicate either the agonist activity of OCN
